# What was measured:
# [1] = tested on: skin lesions of Poikiloderma of Civatte
# Description: FIG. 1 represents the delimited area of the patient's skin to be treated with a composition described in this document, containing an alpha-adrenergic agonist, namely brimonidine gel 0.33%, prior to applying the medicine.
# FIG. 2 represents the area of the patient's skin to be treated with the composition mentioned above, immediately after applying the medicine.
# Drawing 1 represents the area selected and marked with white pencil for applying a product containing the alpha-adrenergic agonist brimonidine at 0.33% on skin lesions of Poikiloderma of Civatte; this drawing represents the area prior to application. Drawing 2 represents the moment immediately after applying the composition, which was restricted to the small area marked on the skin of the patient.
# [2] = clinical studies for acute erythema or diseases such as rosacea; cited from earlier work
smiles,measurement,setting,value
Brc1c(NC2=NCCN2)ccc2nccnc12 [brimonidine],color of the skin affected by Poikiloderma of Civatte,"[1]; brimonidine at 0.33%, topical, marked skin area, 40 minutes after applying",effective improvement in the color of the skin
same,redness of the Poikiloderma of Civatte erythema,[1]; topical application of the product,visibly improves the redness
same,"adverse events (most common: erythema, redness, burning sensation, contact dermatitis)",[2],less than or equal to 1%

# Reference: US20190111055A1, “USE OF PHARMACEUTICAL COMPOSITION FOR THE TREATMENT OF SKIN ERYTHEMA IN POIKILODERMAS” (priority 2016, published 2019)
